Experimental data reported in patent US9458479B2, “Method for late introduction of the (8R) hydroxyl group carbapenem β-lactam antibiotic synthesis” (THE JOHNS HOPKINS UNIVERSITY, priority 2009, dated 2016).

Legend:
[1] = tested on: ThnG; assay: In vitro reaction of carbapenam/ems with purified ThnG, HPLC and ESI-MS analysis of products; type: biochemical, Streptomyces cattleya; conditions: 1 mM substrate, 0.2 mg/mL ThnG, 25 mM MOPS pH 7.0, ferrous ammonium sulfate, α-KG, ascorbate, room temperature 1 h
Description: (§1) Thienamycin biosynthetic cluster genes thnG and thnQ were cloned from genomic DNA and inserted into pET29b each bearing a C-terminal His6-tag. The recombinant proteins were overproduced in E. coli Rosetta2(DE3) and purified by Ni-NTA affinity chromatography. In vitro reactions in MOPS, pH 7.0, containing Fe(NH4)2(SO4)2, α-KG, ascorbate, the subject carbapenam/em, and either ThnG or ThnQ were incubated and analyzed by HPLC for the formation of new product(s). Salowe, S. P., et al., Biochemistry 29(27):6499-6508 (1990); Decristoforo, G. Anal. Chim. Acta 163(SEP):25-33 (1984). […] The products were immediately identifiable as carbapenems by their unique chromophores (λmax=290-320 nm). ThnQ produced a single new product more polar than 5, while ThnG produced two products, one with a shorter retention time and one with a longer retention time than that of 5.
For routine HPLC analysis, reactions were assembled containing 25 mM MOPS, pH 7.0, 1 mM ascorbate, 0.08 mM ferrous ammonium sulfate, 8 mM α-ketoglutarate (α-KG), 1 mM of the substrate and 0.2 mg/mL ThnG or ThnQ. Salowe, S. P., et al., Biochemistry 29(27):6499-6508 (1990). After addition of the protein, the reactions were incubated at room temperature for 1 h. The protein was then removed with an Amicon Ultra 10,000 MWCO filter. For ESI mass spectroscopic analysis of HPLC purified enzymatic products, reactions were assembled under similar conditions except containing 2 mM substrate, 2 mM ascorbate and 0.6 mg/mL ThnG or ThnQ.
(§2) HPLC conditions: Phenomenex Luna 5 μC18(2) analytical column; Method 1, A=50 mM ammonium formate pH 8.5, B=MeOH, t=0 min 0% B, t=10 min 35% B, t=13 min 35% B, t=15 min 0% B, t=20 min 0% B. Method 2, A=50 mM ammonium formate pH 8.5, B=MeOH, t=0 min 0% B, t=10 min 33% B, t=18 min 33% B, t=20 min 0% B, t=25 min 0% B. λ=300 nm (carbapenem) or 220 nm (carbapenam). Decristoforo, G., Anal. Chim. Acta 163:25-33 (1984). Purified carbapenems were collected from the HPLC and analyzed directly by ESI mass spectrometry in the negative ion mode.

[2] = tested on: ThnQ; assay: In vitro reaction of carbapenam/ems with purified ThnQ, HPLC and ESI-MS analysis of products; type: biochemical, Streptomyces cattleya; conditions: 1 mM substrate, 0.2 mg/mL ThnQ, 25 mM MOPS pH 7.0, ferrous ammonium sulfate, α-KG, ascorbate, room temperature 1 h
Description: as §1, with “5. […]” for “5.”
as §2, with “Decristoforo, G., Anal. Chim. Acta 163:25-33 (1984).” left out

For `CCC1C(=O)N2C(C(=O)O)=C([S+]([O-])CCNC(C)=O)CC12` (stereo not drawn) [compound 8, PS-5 sulfoxide], the “product(s) of the ThnG-catalyzed reaction (HPLC, ESI-MS)” value [1] was “unable to catalyze desaturation”.
For `CC(=O)NCCSC1=C(C(=O)O)N2C(=O)[C@H]([C@@H](C)O)[C@H]2C1` [compound 2, N-acetyl thienamycin], the “product(s) of the ThnG-catalyzed reaction (HPLC, ESI-MS)” value [1] was “N-acetyl dehydrothienamycin (3)”.
For `CC[C@H]1C(=O)N2C(C(=O)O)=C(SCCNC(C)=O)C[C@H]12` [compound 5, PS-5], the “product(s) of the ThnQ-catalyzed reaction (HPLC, ESI-MS)” value [2] was “stereospecifically hydroxylated PS-5 (5) to produce 2” and the “product(s) of the ThnG-catalyzed reaction (HPLC, ESI-MS)” value [1] was “identified as PS-7 (7) and PS-7 sulfoxide 9”.
`CCC1C(=O)N2C(C(=O)O)=C(S/C=C/NC(C)=O)CC12` (stereo not drawn) [compound 7, PS-7] was tested, and the “product(s) of the ThnQ-catalyzed reaction (HPLC, ESI-MS)” value [2] was “N-acetyl dehydrothienamycin (3)” and the “product(s) of the ThnG-catalyzed reaction (HPLC, ESI-MS)” value [1] was “able to convert 7 to its sulfoxide”.
